Nine molecules from US12280090B2, “Antimicrobial peptides” (priority 2018, dated 2025) can be followed below.

≈ marks a conversion by molar mass, not a printed value. Where two headings read alike, the source gives them in different places. Ends that are not written are not given here. Peptide text beside a SMILES is read from it. Some results are limits rather than exact numbers.

Common to all, as to type: cell-based
The subject of assay [1] is Escherichia coli: ATCC 9723H. How it is done: (§1) Microtiter broth dilution assays. HP2, HP3, and HP5 peptides are comprised of novel sequences that have not yet been described in the AMP literature. A common method for establishing antimicrobial activity of peptides is to perform microtiter broth assays. Microtiter broth dilution methods were implemented for determination of the minimum inhibitory concentration (MIC) and minimum bactericidal concentration (MBC). HP3 and HP5 were tested in addition to Ranatuerin-1/HP4 peptide as a positive control. HP2 could not be tested because multiple peptide synthesis attempts failed. The human cathelicidin, LL-37^30 was used as an additional positive control, and an unrelated similarly sized cationic peptide from the T. pallidum protein Tp0751 was used as a negative control. The potential AMPs were tested against bacteria representative of all three types of known cell envelope (Gram-positive, negative, and the complex and unique mycobacterial cell wall/envelope), given that a major mechanism used by AMPs is cell wall/membrane targeting.
(§2) Microtiter broth dilution assays. To test for antimicrobial activity, HP3, HP4/Ranatuerin-1, and HP5, peptides were synthesized by GenScript (Piscataway, New Jersey, USA). HP2 was not tested because the service provider was unable to synthesize this peptide despite multiple attempts. An unrelated, similarly-sized peptide from the Treponema pallidum protein Tp0751^55 was used as a negative control and the human cathelicidin, LL-37^30, was included as a positive control. Peptides were dissolved in filter-sterilized ultrapure water and tested for sterility by plating on non-selective agar plates followed by a 48 h incubation at 37° C. Two-fold serial dilutions of each peptide were prepared to obtain a series corresponding to ten times the required testing concentrations (2560, 1280, 640, 320, 160, 80, 40, 20, 10, and 5 μg/mL)^29.
(§3) Microtiter broth dilution methods were implemented for determination of the minimum inhibitory concentration (MIC) and minimum bactericidal concentration (MBC) of the four putative AMPs and the negative control peptide using procedures adapted from the R.E.W. Hancock Laboratory for cationic AMPs^29 and the CLSI methods for dilution antimicrobial susceptibility tests^56.
(§4) To assess antimicrobial activity across a diverse range of bacterial species, colonies were cultured overnight on Mueller Hinton agar plates (MHA; +5% sheep blood for S. pyogenes)^56 from frozen glycerol stock. Bacteria tested include Gram-negative rods (Escherichia coli: ATCC 9723H; Pseudomonas aeruginosa: ATCC 10148), Gram-positive cocci (Staphylococcus aureus: ATCC 6538P; Streptococcus pyogenes: unknown strain, hospital isolate), and Mycobacterium smegmatis (MC^2155; classified as neither Gram-positive nor Gram-negative). Bacterial suspensions were prepared by placing 3-5 morphologically similar colonies from the grown plate into sterile glass culture tubes containing 2 mL of Mueller Hinton Broth (MHB; +5% lysed horse blood for S. pyogenes) 56. Microbial inoculums from bacterial suspensions were prepared through a spectrophotometric adjustment of turbidity to 0.08-0.1 at 600 nm to achieve a turbidity equivalent to that of a 0.5 McFarland standard (1-2×10^8 CFU/mL)^29. The standardized bacterial inoculums were then diluted in MHB to obtain final cell densities of approximately […].
(§5) Ninety-six-well microtiter plates (Fisher Cat. No. CS003790; Nepean, Ontario, Canada) were prepared with 100 μL of E. coli, P. aeruginosa, S. aureus, S. pyogenes, or M. smegmatis bacterial suspension (5×10^5 CFU/mL) dispensed into each well of columns 1 through 11. Eleven microliters of the 10×AMP dilution series for all four peptides were added to each well from column 1 (2560 μg/mL) to column 10 (5 μg/mL) in all plates. Column 11 functioned as a positive control for bacterial growth in the absence of AMPs. Column 12 in each plate contained 100 μL of MHB as a sterility control (+5% lysed horse blood for S. pyogenes)^56. […]

Assay [2] concerns Mycobacterium smegmatis (MC^2155). How it is done: as §1, §2, §3, §4, §5
Assay [3] deals with Pseudomonas aeruginosa: ATCC 10148. As for the experimental part: as §1, §2, §3, §4, §5
Assay [4] concerns Staphylococcus aureus: ATCC 6538P. As for the experimental part: as §1, §2, §3, §4, §5
Assay [5] has as its system Streptococcus pyogenes: unknown strain, hospital isolate. As for the experimental part:
as §1, §2, §3, §4, §5

The mark [6] stands for this setting: unknown strain, hospital isolate.

Regarding `CC[C@H](C)[C@H](NC(=O)CNC(=O)[C@@H](NC(=O)[C@@H](NC(=O)[C@H](CCCCN)NC(=O)CNC(=O)[C@@H](NC(=O)[C@H](CC(=O)O)NC(=O)[C@H](CCCCN)NC(=O)[C@@H](NC(=O)[C@@H](NC(=O)[C@H](CC(=O)O)NC(=O)[C@H](CC(C)C)NC(=O)[C@H](CC(C)C)NC(=O)CN)[C@@H](C)CC)[C@@H](C)CC)[C@@H](C)O)[C@@H](C)O)[C@@H](C)O)C(=O)N[C@@H](CC(C)C)C(=O)N[C@@H](CCSC)C(=O)N[C@@H](CC(=O)O)C(=O)N[C@H](C(=O)N[C@@H](CC(C)C)C(=O)N[C@@H](CCCCN)C(=O)N[C@@H](CS)C(=O)N[C@@H](CCC(N)=O)C(=O)N[C@@H](CCSC)C(=O)N[C@H](C(=O)NCC(=O)N[C@@H](CCCNC(=N)N)C(=O)N[C@@H](CS)C(=O)N1CCC[C@H]1C(=O)N1CCC[C@H]1C(=O)N[C@@H](CO)C(=O)N[C@@H](CO)C(=O)O)[C@@H](C)O)[C@@H](C)O` [Peptide P3_CCH] (H-GLLDIIKDTGKTTGILMDTLKCQMTGRCPPSS-OH; N-terminus and C-terminus assumed), the MBC in assay [1] (ATCC 9723), in assay [2] (Mycobacterium (MC^2155)), in assay [3] (ATCC 10148), in assay [4] (ATCC 6538) and in assay [5] (setting [6]) was above 256 µg/mL in each case. In addition, the MIC in assay [1] (ATCC 9723), in assay [2] (Mycobacterium (MC^2155)), in assay [3] (ATCC 10148), in assay [4] (ATCC 6538) and in assay [5] (setting [6]) was above 256 µg/mL each time.

With `CC[C@H](C)[C@H](NC(=O)[C@H](C)NC(=O)[C@@H]1CCCN1C(=O)[C@@H](N)Cc1ccccc1)C(=O)N[C@H](C(=O)N[C@@H](CS)C(=O)N[C@@H](CCCCN)C(=O)N[C@H](C(=O)N[C@@H](CO)C(=O)N[C@@H](CCCCN)C(=O)N[C@@H](CC(N)=O)C(=O)N[C@@H](CS)C(=O)O)C(C)C)[C@@H](C)CC` [Peptide P8_CCH, FPAIICKVSKNC] (H-FPAIICKVSKNC-OH; N-terminus and C-terminus assumed), the MBC in assay [1] (ATCC 9723), in assay [3] (ATCC 10148), in assay [4] (ATCC 6538) and in assay [5] (setting [6]) was above 256 µg/mL in each case. Also, the MIC in assay [1] (ATCC 9723) is above 256 µg/mL; in assay [2] (Mycobacterium (MC^2155)), 128 µg/mL (≈ 96.8 µM); in assay [3] (ATCC 10148), above 256 µg/mL; in assay [4] (ATCC 6538), above 256 µg/mL; in assay [5] (setting [6]) it was above 256 µg/mL.

As for `CC[C@H](C)[C@H](N)C(=O)N[C@@H](CCC(N)=O)C(=O)N[C@@H](CCCNC(=N)N)C(=O)N[C@@H](CC(C)C)C(=O)N1CCC[C@H]1C(=O)N[C@H](C(=O)N[C@H](C(=O)N[C@H](C(=O)N[C@H](C(=O)N[C@@H](CC(C)C)C(=O)N1CCC[C@H]1C(=O)N[C@@H](CO)C(=O)N[C@@H](CC(C)C)C(=O)N[C@@H](Cc1ccc(O)cc1)C(=O)N[C@@H](CS)C(=O)N[C@H](C(=O)N[C@H](C(=O)N[C@@H](CS)C(=O)N[C@@H](CCCNC(=N)N)C(=O)N[C@H](C(=O)N[C@@H](CS)C(=O)O)[C@@H](C)O)[C@@H](C)CC)C(C)C)[C@@H](C)CC)C(C)C)[C@@H](C)CC)C(C)C` [Peptide P14_CCH] (H-IQRLPVIVILPSLYCVICRTC-OH; N-terminus and C-terminus assumed), the MBC in assay [1] (ATCC 9723), in assay [2] (Mycobacterium (MC^2155)), in assay [3] (ATCC 10148), in assay [4] (ATCC 6538) and in assay [5] (setting [6]) was above 256 µg/mL throughout. The MIC in assay [1] (ATCC 9723), in assay [2] (Mycobacterium (MC^2155)), in assay [3] (ATCC 10148), in assay [4] (ATCC 6538) and in assay [5] (setting [6]) was above 256 µg/mL throughout.

On to FLTKPGMTFGKLLGK [Peptide P9_CCH], for which the MBC in assay [1] (ATCC 9723), in assay [2] (Mycobacterium (MC^2155)), in assay [3] (ATCC 10148), in assay [4] (ATCC 6538) and in assay [5] (setting [6]) was above 256 µg/mL each time. In addition, the minimum inhibitory concentration (MIC) in assay [1] (ATCC 9723), in assay [2] (Mycobacterium (MC^2155)), in assay [3] (ATCC 10148), in assay [4] (ATCC 6538) and in assay [5] (setting [6]) was above 256 µg/mL in each case.

As to “FYFPVSRKFGGK [Peptide P1_CCH, FYFPVSRKFGGK]”, the MIC in assay [1] (ATCC 9723), in assay [3] (ATCC 10148), in assay [4] (ATCC 6538) and in assay [5] (setting [6]) was above 256 µg/mL throughout. Moreover, the MBC in assay [1] (E. coli (Table 5)), in assay [2] (M. smegmatis (Table 5)), in assay [3] (P. aeruginosa (Table 5)), in assay [4] (S. aureus (Table 5)) and in assay [5] (S. pyogenes (Table 5)) was above 256 µg/mL in each case.

Take “IAGQVAAAKQKHI [Peptide P12_CCH, IAGQVAAAKQKHI]”: the MBC in assay [1] (ATCC 9723), in assay [2] (Mycobacterium (MC^2155)), in assay [3] (ATCC 10148), in assay [4] (ATCC 6538) and in assay [5] (setting [6]) was above 256 µg/mL each time. Also, the MIC in assay [1] (ATCC 9723), in assay [2] (Mycobacterium (MC^2155)), in assay [3] (ATCC 10148), in assay [4] (ATCC 6538) and in assay [5] (setting [6]) was above 256 µg/mL in each case.

For “LRCPTPHYNFENGIGNHLMWNIIWLNAQQMSYKNK [Peptide P15_CCH]”, the MBC in assay [1] (ATCC 9723), in assay [2] (Mycobacterium (MC^2155)), in assay [3] (ATCC 10148), in assay [4] (ATCC 6538) and in assay [5] (setting [6]) was above 256 µg/mL in each case. Further, the MIC in assay [1] (ATCC 9723), in assay [2] (Mycobacterium (MC^2155)), in assay [3] (ATCC 10148), in assay [4] (ATCC 6538) and in assay [5] (setting [6]) was above 256 µg/mL throughout.

Turning to “SNRDFFKVNIFRLCG [Peptide P10_CCH, SNRDFFKVNIFRLCG]”, the minimal bactericidal concentration (MBC) in assay [1] (ATCC 9723), in assay [2] (Mycobacterium (MC^2155)), in assay [3] (ATCC 10148), in assay [4] (ATCC 6538) and in assay [5] (setting [6]) was above 256 µg/mL in each case. The MIC in assay [1] (ATCC 9723), in assay [2] (Mycobacterium (MC^2155)), in assay [3] (ATCC 10148), in assay [4] (ATCC 6538) and in assay [5] (setting [6]) was above 256 µg/mL throughout.

For the molecule “SNRDFFMVNIFGLCGPFGIMERKRR [Peptide P16_CCH]”, the MIC in assay [1] (ATCC 9723), in assay [2] (Mycobacterium (MC^2155)), in assay [3] (ATCC 10148), in assay [4] (ATCC 6538) and in assay [5] (setting [6]) was above 256 µg/mL in each case.

Usually MBC stands for the smallest concentration meeting the test's criterion for killing. Read a low MBC as more potent killing. The MIC is the smallest concentration in the dilution series that meets the test's criterion for growth inhibition. A high value points to a need for much substance.
